Experimental data: patent US20050037975A1, “Method for treatment of glutamate related disorders” (priority 1997, published 2005)
Several values for one entry are separate records, joined by “and”; a condition that tells them apart may be missing. Equal values may be shown once. Marks after values point to notes of the source that are not given here.

Tests used:
brain or liver SSA DH = target: T1, brain or liver SSA DH (Mus musculus, UniProt Q8BWF0); assay: In vivo effect on brain or liver SSA DH levels; settings: up to 100 mg/kg i.p.
T1 construct: with no effect on the levels of brain or liver SSA DH; from tissue; host or cells: brain or liver of treated animals
T1 sequence (Q8BWF0 36-523): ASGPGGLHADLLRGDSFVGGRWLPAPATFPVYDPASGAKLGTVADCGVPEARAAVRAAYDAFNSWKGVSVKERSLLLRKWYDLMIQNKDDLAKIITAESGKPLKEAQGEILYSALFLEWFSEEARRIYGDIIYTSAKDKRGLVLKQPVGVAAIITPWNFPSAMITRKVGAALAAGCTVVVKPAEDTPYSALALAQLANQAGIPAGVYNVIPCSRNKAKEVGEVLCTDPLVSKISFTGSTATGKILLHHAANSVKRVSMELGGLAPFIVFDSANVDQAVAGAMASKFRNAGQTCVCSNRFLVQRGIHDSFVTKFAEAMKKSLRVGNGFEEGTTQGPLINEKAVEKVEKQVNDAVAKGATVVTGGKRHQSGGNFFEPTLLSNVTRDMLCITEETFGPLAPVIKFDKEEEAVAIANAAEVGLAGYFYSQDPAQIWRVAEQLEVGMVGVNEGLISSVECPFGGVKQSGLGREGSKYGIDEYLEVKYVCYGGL

[1] = tested on: brain glutamate receptors (synaptic membranes); assay: [3H]glutamate binding to mouse brain synaptic membranes in vitro
Protocol: Binding Studies—Synaptic membranes (100 μg protein) were isolated (Y. H. Lee et al., J. Neurosci. Res. 40, 797-806 (1995)) form whole brain homogenate of male Swiss Webster mice and were incubated in 0.1 mM L-glutamate for 30 minutes at 25° C. After addition of 50 nM of [^3H]glutamate, incubation was continued for an additional 45 minutes. Reactions were terminated by centrifugation at 4° C. to separate membrane-bound from free radioactivity. […] The rate (k) and maximum percent blockage of glutamate binding (M) by DETC-MeSO (1) during the incubation time (t) was determined by fitting the equation [% inhibition]=M(1−e^−kh) to these day by use of the program Grafit (Erithicus Software Ltd.). This equation was derived for first-order inactivation by a group specific reagent that gives a partial effect. If “A” is the percent of binding activity that remains after extensive exposure (t=of the receptor to excess DETC-MeSO, then M=100−A)e^−kh+A; substituting (100−M) for “A” and [100−% inhibition] for “a” in this equation gives the one employed for purposes of data analyses. […] A second equation was employed in the analysis of binding data that defines partial, irreversible inactivation of two distinct groups of receptors [% inhibition]=M1(1−e^−k1^IT)+M2(1−e^−k1^IT), where M1 and M2 are the maximum amount of inhibition obtained for complete modification of each receptor population and k1 and k2 are the rate constants for these modifications, respectively.
Six determinations of the effect of DETC-MeSO were made at each concentration tested (1, 5, 10, 50, 100, 200, and 1000 μM) and the average value is shown with error bars for one standard deviation.

NMDA-induced seizures = NMDA-induced seizures in mice; assay type: in vivo
Protocol: Animals—Male Swiss Webster mice (20-30 g) or male Sprague-Dawley rats (250-300 g) were used. All that employed animals were conducted in strict compliance with the NIH guidelines on animal use and institutional regulations concerning animal experimentation. Animals were exposed to hyperbaric oxygen in a specify designed press chamber as previously described (M. D. Faiman et al., Biochem. Pharmacol., 20, 3049-3067 (1971); M. D. Faiman et al. Aerosp. Med.,45, 29032.(1974)). The time to first clonic-tonic seizure after brining animals to a final pressure of five atmospheres of 100% oxygen or after intraperitoneal injection of convulsants was noted by. criteria outlined previously (M. D. Faiman et al. (1971), supra M. D. Faiman et al. (1974), supra). Unless otherwise specified, the ability of DETC-MeSO to prevent seizures was tested by intraperitoneal injection of 5.2 mg/kg of DETC-MeSO 1-2 hours prior to bringing the animal to a final pressure of 5 atmospheres of 100% oxygen or intraperitoneal injection of N-methyl-D-asparate (NMA) (125 mg/kg) r L-methionine sulfoximine (MetSOX) (250 mg/kg). Evaluation of the statistics for whole animal experiments or for changes in brain glutamate binding after administration of DETC-MeSO was conducted by use of the program GraphPAD InStat from Graph PAD Software (San Diego, Calif.).

[2] = Carbamoylation of glutathione by DETC-MeSO under physiological conditions
Excerpt: This rate of reaction was approximate an order of magnitude faster than that of the more familiar α-haloketone functionality.

[3] = double exponential fit, nominal values

SMILES: CCN(CC)C(=O)[S+](C)[O-] (stereo not drawn) [DETC-MeSO, S-Methyl-N,N-Diethylthiolcarbamate Sulfoxide]
- effect on the levels of brain or liver SSA DH (brain or liver SSA DH): no effect
- inhibition of glutamate binding ([1]; 0.1 mM, absence of glycine (FIG. 2)): 53%
- irreversible blockage of glutamate binding ([1]; 0.1 mM, in the presence of glycine (0.1 mM)): 48±3%
- M1, maximum inhibition of first receptor population [1, 3]: 15%
- M2, maximum inhibition of second receptor population [1, 3]: 43%
- k1, rate constant of first receptor population [1, 3]: 900 M⁻¹ s⁻¹ and 901 M⁻¹ s⁻¹
- k2, rate constant of second receptor population [1, 3]: 8 M⁻¹ s⁻¹
- effect on glutamate binding to synaptic membrane preparations ([1]; in vitro, without glycine): time-dependent, partial, and irreversible loss of their ability to bind glutamate
- rate (k) of blockage of glutamate binding ([1]; single exponential fit): 25±10 M^−s^−1
- maximum percent blockage of glutamate binding (M) ([1]; single exponential fit, 1-1000 μM): 58±7%
- effect on seizures that result from NMDA administration (NMDA-induced seizures; NMDA 125 mg/kg i.p.): prevented seizures
- number of animals that exhibited the effect/total number of animals in the group (NMDA-induced seizures; NMDA 125 mg/kg, 5.2 mg/kg i.p. 1-2 hours prior): (0/6)^a
- mean time to seizure (NMDA-induced seizures; NMDA 125 mg/kg, 5.2 mg/kg i.p. 1-2 hours prior, observation 2 hours): >120^a min
- rate of carbamoylation of the sulfhydryl group of glutathione (GSH) ([2]; 37° C., pH 7): 10 M⁻¹ s⁻¹
- conversion to DETC-GS ([2]; GSH 1-6 mM, within 5 minutes): > 95%
- DETC-MeSO remaining ([2]; blood, GSH 1 mM, after 5 minutes): less than 5%
- DETC-MeSO remaining ([2]; liver, after one minute): less than 3%
